Assay results published in paper PMC3877906, “Polypeptide Modulators of TRPV1 Produce Analgesia without Hyperthermia” (Marine Drugs, 2013).
Entries after “also recorded” stand apart in the source; their conditions may differ.

How the values were obtained:
CD-1 mice [1] = assay: acetic acid-induced writhing (abdominal constriction test of visceral pain); type: in vivo, mouse
Method: TRPV1 can be activated by low pH stimuli and is therefore involved in pain caused by acidification, which can be measured in the pain behavior model of acetic acid-induced writhing. Intraperitoneal administration of acetic acid provokes a very stereotyped behavior in the mouse. The constriction response is considered the definitive measure of visceral pain intensity. Animals were pretreated with polypeptides 15 min before acetic acid injection.
(§1) All experiments were performed in accordance with the recommendations in the “Principles of Laboratory Animal Care” and after approval by the Animal Care and Use Committee of the Branch of the IBCh RAS (Pushchino, Russia). Adult male CD-1 mice (Animal Breeding Facility Branch of Shemyakin-Ovchinnikov Institute of Bioorganic Chemistry, Russian Academy of Sciences, Pushchino, Russia) weighing 20–25 g were used. Animals were allowed to acclimate in the laboratory for at least five days. Mice were housed at room temperature (23 ± 2 °C) on a 12 h light–dark cycle with food and water available ad libitum. Polypeptides or vehicle was administered intravenously 15 min before testing.
(§2) The significance of the data was determined by analysis of variance (ANOVA) followed by Tukey’s test. Data are presented as mean ± S.E.
Separate groups of mice were injected with 0.6% acetic acid in saline (10 mL∙kg^−1 intraperitoneally (i.p.)). Mice were immediately placed inside transparent glass cylinders, and the number of writhes was recorded for 15 min.

TRPV1 = type: cell-based, rat; details: for effect on capsaicin-induced TRPV1 response: whole-cell patch clamp, HEK-293
Method: Figure 2 Effects of APHC3 on recombinant TRPV1 expressed in HEK-293 cells. (a) Resting current recorded from a TRPV1-positive cell held at −30 mV. […] Straight lines above the recording indicate application of APHC3 (Long line) and capsaicin (Short lines). The cells were stimulated and rinsed by rapid switching of the bath solution between the control solution and solutions containing the indicated compound. (b) Capsaicin responses in control and in the presence of the 300 nM APHC3 peptide. In each case, the control response was calculated as an average of two acid responses recorded just prior to peptide application. Averaged responses recorded in the presence of APHC3 were normalized to averaged control responses. Those are presented as the mean ± s.d. (n = 4). […] (c, d) Cell responses to the acidification of the bath solution from pH 7.4 to pH 5.5 in control and in the presence of the APHC3 applied at different concentrations as indicated. The experimental traces in (c) and in (d, upper trace) illustrate representative responses of EGFP/TRPV1-positive cells. The bottom trace in (d) represents responses of an EGFP/TRPV1-negative cell assayed simultaneously. (e) Acid responses recorded in the presence of APHC3 (90, 160 and 240 nM) normalized to a control response. The data are presented as the mean ± s.d. (n = 5–10). […] In each case, the control response was calculated as an average of the two acid responses recorded just prior to peptide application. The average of the two acid responses recorded after peptide application was calculated and normalized to the control response. Experimental traces in (c, d) were obtained from three different cells. The changes in bath solution pH (continuous lines) and APHC3 applications (thick straight lines) are shown above the fluorescence traces. Cells were stimulated and rinsed by a rapid replacement of the control bath solution with modified bath solution at pH 5.5 with or without APHC3.
HEK-293 cells were cultured in Dulbecco’s modified Eagle’s medium (DMEM) (Life Technologies, Grand Island, NY, USA) containing 10% (vol/vol) fetal bovine serum (Thermo Fisher Scientific, Palm Beach, FL, USA), glutamine (1%) and the antibiotic gentamicin (100 μg/mL) (Life Technologies, Grand Island, NY, USA). The pIRES2-EGFP plasmid harboring rat TRPV1 cDNA was transiently transfected into HEK-293 cells by replacing the growth medium in each well with a transfection mixture, containing 1.6 μg of DNA and 4 μL of Lipofectamine (Life Technologies, Grand Island, NY, USA) in 1 mL of serum-free DMEM. After incubating for 6 h, the transfection mixture was replaced with normal culture medium. Cells were assayed within 48–96 h after transfection.
Ion currents were recorded using an Axopatch 200A amplifier, with a DigiData 1322A interface, and pClamp8 software (Molecular Devices, Downingtown, PA, USA). External solutions were delivered by a gravity-driven perfusion system at a rate of 0.1 mL/s. Generally, the whole-cell patch clamp approach was used with recording pipettes containing (mM): 140 CsCl, 1 MgATP, 10 BAPTA, 10 HEPES-CsOH (pH 7.2). The basic bath solution included the following (mM): 140 NaCl, 5 KCl, 1 MgCl2, 1 CaCl2, 10 HEPES-NaOH (pH 7.4).

CD-1 mice [2] = assay: CFA-induced thermal hyperalgesia; type: in vivo, mouse; details: i.v., n = 9; for reversal of CFA-induced thermal hyperalgesia: 0.1-0.01 mg/kg (dose of this value not stated), 24 h after CFA, 53 °C; for CFA-induced thermal hyperalgesia, in words: 0.1-0.01 mg/kg, vs saline
From the text: CFA-induced thermal hyperalgesia depends on TRPV1 activation; this was shown in TRPV1-deficient mice and using TRPV1 antagonists. CFA-induced thermal hyperalgesia is a complex process where different inflammatory pathways acting via several mechanisms lower the TRPV1 temperature threshold and influence thermal sensitivity. CFA-treated mice developed thermal hyperalgesia in the injected paw, this manifested as a decrease in the latency to paw withdrawal in response to thermal stimuli (Figure 4c).
as §1, §2
Complete Freund’s adjuvant suspended in an oil/saline (1:1) emulsion, was injected into the plantar surface of the left hind-paw of mice (20 μL/paw). Control mice received 20 μL of saline (i.pl.). Injected paw withdrawal latencies in response to thermal stimulation (53 °C) were measured 24 h after CFA injection.

CD-1 mice [3] = assay: open-field locomotor activity test; type: in vivo, mouse; details: 0.1 mg/kg i.v.; vs saline; n = 9 per group; 3 min recording
From the text: We conducted multiple in vivo experiments to assess the biological effects of APHC1 and APHC3, acting via modulation of TRPV1, on temperature sensation and inflammation. Possible negative effects of investigated components on the central nervous system were first excluded. We evaluated APHC1/3 in open-field locomotor activity tests as compounds capable of reducing locomotor activity could misrepresent results of other behavioral tests (particularly in pain models). […] There was no significant effect detected for either polypeptide at a dose of 0.1 mg/kg i.v. (Figure 3a).
All experiments were performed in accordance with the recommendations in the “Principles of Laboratory Animal Care” and after approval by the Animal Care and Use Committee of the Branch of the IBCh RAS (Pushchino, Russia). Adult male CD-1 mice (Animal Breeding Facility Branch of Shemyakin-Ovchinnikov Institute of Bioorganic Chemistry, Russian Academy of Sciences, Pushchino, Russia) weighing 20–25 g were used. […]
The significance of the data was determined by analysis of variance (ANOVA) followed by Tukey’s test. […]
Open-field activity was measured using a system that counts interruptions in a set of photo beams (OPTO—VARIMEX (Columbus Instruments, Columbus, OH, USA) and ATM3 Auto System using Auto-Track Version 4.2 software). Spontaneous locomotor activity was recorded for 3 min.

[4] = 0.1 mg/kg i.v., n = 9, vs saline

Substance | number of writhes, in words (CD-1 mice [1]; [4]) | inhibition of number of writhes (CD-1 mice [1]; 0.1 and 0.5 mg/kg i.v. 15 min before 0.6% acetic acid i.p., n = 9) [%] | inhibition of TRPV1 currents (TRPV1; 100 nM capsaicin, 300 nM APHC3, whole-cell, held at −30 mV, pH 7.4 bath, four experiments (n = 4)) [%] | inhibitory effect on capsaicin-induced currents (TRPV1; concentrations more than 300 nM) [%] | effect on capsaicin-induced TRPV1 response (TRPV1; 100 nM capsaicin) | reversal of CFA-induced thermal hyperalgesia (CD-1 mice [2]) | CFA-induced thermal hyperalgesia, in words (CD-1 mice [2]) | travelled distance and rearing, open-field locomotor activity (CD-1 mice [3]) | number of writhes, in words (CD-1 mice [1]; 0.5 mg/kg i.v.)
APHC3: polypeptide from Heteractis crispa highly homologous to APHC1, differing in four of 56 amino acids; produced recombinantly in E. coli (GSICLEPKVVGPCTAYFPRFYFNSETGKCTPFIYGGCEGNGNNFETLRACRGICRA; left off: TRX, end not stated, cleaved) | significantly reduced the number of writhes | 50 | ~25 | 25 | partially blocked the capsaicin-induced response | 34% | Dose dependent inhibition of CFA-induced thermal hyperalgesia; also recorded: significantly reduced thermal hyperalgesia | did not significantly alter normal mouse behavior | 
APHC1: polypeptide modulator of TRPV1 from sea anemone Heteractis crispa; homologous to BPTI/Kunitz type serine-protease inhibitors; produced recombinantly in E. coli (GSICLEPKVVGPCTAYFRRFYFDSETGKCTVFIYGGCEGNGNNFETLRACRAICRA; left off: TRX, end not stated, cleaved) | did not produce a statistically significant effect; also recorded: did not significantly inhibit the response to acetic acid |  |  |  | partially blocked the capsaicin-induced response | ~ 80% | Dose dependent inhibition of CFA-induced thermal hyperalgesia; also recorded: significantly reduced thermal hyperalgesia; also recorded: clearly dose-dependent | did not significantly alter normal mouse behavior | significantly reduced number of writhes
